The source of these data is US20240335442A1 (Eurofarma Laboratórios S.A., priority 2021, published 2024).

Common to all, as to type: cell-based
For assay [1], the target named is T1, human sodium channel Nav 1.8 (Homo sapiens (Human), UniProt Q9Y5Y9). The experiment in a line: Automated whole-cell voltage-clamp (ScreenPatch 384P), Nav 1.8 sodium current, Protocol 1. The following applies: Protocol 1 (holding voltage -90 mV, 0.1 Hz); CHO cells expressing human Nav 1.8; room temperature; read-out: Nav1.8 IC50. The method, then:
(§1) Biological assays were performed on Chinese hamster ovary (CHO) cells expressing the human sodium channels Nav 1.8 and Nav 1.7 stably.
(§2) The experimental voltage-clamp protocol using the whole cell configuration was established on the automated ScreenPatch® 384P platform (SP384PE, Nanion Technologies, Livingston, NJ) and recording of the results was performed with a Nanion 384-well Patch Clamp chip (NPC) (Nanion Technologies, Livingston, NJ).
(§3) Compounds of Formula (I), were diluted in eight concentrations in the extracellular solution composed of physiological saline, buffered with HEPES (mM): NaCl, 137; KCl, 4; CaCl2, 3.8; MgCl2, 1; HEPES, 10; Glucose, 10; pH 7.4. The […], 50; CsF, 90; MgCl2, 5; EGTA, 5; HEPES, 10; pH 7.2. The duration of exposure of each compound with the cells expressing Nav 1.7 or Nav 1.8 was at least five minutes and the assays were performed at room temperature.
(§4) The measurements of the sodium currents of Nav 1.8 and Nav 1.7 were obtained using the voltage protocols described below: • Protocol 1: A holding voltage of-90 mV was established followed by a voltage phase of 200 ms to-120 mV, followed by a voltage step of 10 mV for 1 second for Nav 1.8 or 0 mV for Nav 1.7, followed by a step of-100 mV for 20 ms, followed by a step of 20 ms for 10 mV for Nav 1.8 or 0 mV for Nav 1.7 (TP1A) before returning to the holding voltage of-90 mV. • Protocol 2: A holding voltage of-100 mV was established followed by an inactivation voltage step at −40 mV for 8 seconds, followed by a −100 mV step for 20 ms, followed by a 20 ms step for 10 mV for Nav 1.8 or 0 mV for Nav 1.7 (TP1A) before returning to the holding voltage of-100 mV.
(§5) Protocols were repeated at a frequency of 0.1 Hz (Protocol 1) or 0.05 Hz (Protocol 2) and current amplitude was quantified over the TP1A phase log. The variation in the peak amplitude of the current was evaluated according to the Formula described below, after exposure of the cells expressing the channels, at each concentration of the different compounds:
(§6) where ITP1A,basal, and ITP1A,molecule represent the entry peaks of sodium currents into TP1A prior to exposure to the compound and in the presence of the compound, respectively.
(§7) The decrease in peak current amplitude, after exposure of the cells to the compounds, was used to calculate the percent relative blocking of the channels relative to the positive control according to the Formula below: […]
(§8) where % V and % CP represent the averages of the values of current inhibition with a vehicle (DMSO) and positive controls, respectively. The sodium currents of the positive control were considered as 100%.
(§9) where [Test] represents the concentration of the evaluated molecule, IC50 is the concentration of the compound that generates half of the maximum inhibition, N is the Hill's coefficient and % Block′ is the percentage of the sodium channel current (Nav 1.8 and Nav 1.7) inhibited at each concentration of the evaluated molecule. Data were obtained by non linear least squares regression with XL fit for Excel (Microsoft, Redmond, WA).
(§10) Compounds were tested in at least one assay to obtain the IC50 value.

In assay [2] the target is T2, human sodium channel Nav 1.7 (Homo sapiens (Human), UniProt Q15858). In words: Automated whole-cell voltage-clamp (ScreenPatch 384P), Nav 1.7 sodium current, Protocol 1. The following applies: Protocol 1 (holding voltage -90 mV, 0.1 Hz); CHO cells expressing human Nav 1.7; room temperature; read-out: Nav1.7 IC50. Here is the method: as §1, §2, §3, §4, §5, §6, §7, §8, §9, §10
T2 sequence (Q15858 whole entry): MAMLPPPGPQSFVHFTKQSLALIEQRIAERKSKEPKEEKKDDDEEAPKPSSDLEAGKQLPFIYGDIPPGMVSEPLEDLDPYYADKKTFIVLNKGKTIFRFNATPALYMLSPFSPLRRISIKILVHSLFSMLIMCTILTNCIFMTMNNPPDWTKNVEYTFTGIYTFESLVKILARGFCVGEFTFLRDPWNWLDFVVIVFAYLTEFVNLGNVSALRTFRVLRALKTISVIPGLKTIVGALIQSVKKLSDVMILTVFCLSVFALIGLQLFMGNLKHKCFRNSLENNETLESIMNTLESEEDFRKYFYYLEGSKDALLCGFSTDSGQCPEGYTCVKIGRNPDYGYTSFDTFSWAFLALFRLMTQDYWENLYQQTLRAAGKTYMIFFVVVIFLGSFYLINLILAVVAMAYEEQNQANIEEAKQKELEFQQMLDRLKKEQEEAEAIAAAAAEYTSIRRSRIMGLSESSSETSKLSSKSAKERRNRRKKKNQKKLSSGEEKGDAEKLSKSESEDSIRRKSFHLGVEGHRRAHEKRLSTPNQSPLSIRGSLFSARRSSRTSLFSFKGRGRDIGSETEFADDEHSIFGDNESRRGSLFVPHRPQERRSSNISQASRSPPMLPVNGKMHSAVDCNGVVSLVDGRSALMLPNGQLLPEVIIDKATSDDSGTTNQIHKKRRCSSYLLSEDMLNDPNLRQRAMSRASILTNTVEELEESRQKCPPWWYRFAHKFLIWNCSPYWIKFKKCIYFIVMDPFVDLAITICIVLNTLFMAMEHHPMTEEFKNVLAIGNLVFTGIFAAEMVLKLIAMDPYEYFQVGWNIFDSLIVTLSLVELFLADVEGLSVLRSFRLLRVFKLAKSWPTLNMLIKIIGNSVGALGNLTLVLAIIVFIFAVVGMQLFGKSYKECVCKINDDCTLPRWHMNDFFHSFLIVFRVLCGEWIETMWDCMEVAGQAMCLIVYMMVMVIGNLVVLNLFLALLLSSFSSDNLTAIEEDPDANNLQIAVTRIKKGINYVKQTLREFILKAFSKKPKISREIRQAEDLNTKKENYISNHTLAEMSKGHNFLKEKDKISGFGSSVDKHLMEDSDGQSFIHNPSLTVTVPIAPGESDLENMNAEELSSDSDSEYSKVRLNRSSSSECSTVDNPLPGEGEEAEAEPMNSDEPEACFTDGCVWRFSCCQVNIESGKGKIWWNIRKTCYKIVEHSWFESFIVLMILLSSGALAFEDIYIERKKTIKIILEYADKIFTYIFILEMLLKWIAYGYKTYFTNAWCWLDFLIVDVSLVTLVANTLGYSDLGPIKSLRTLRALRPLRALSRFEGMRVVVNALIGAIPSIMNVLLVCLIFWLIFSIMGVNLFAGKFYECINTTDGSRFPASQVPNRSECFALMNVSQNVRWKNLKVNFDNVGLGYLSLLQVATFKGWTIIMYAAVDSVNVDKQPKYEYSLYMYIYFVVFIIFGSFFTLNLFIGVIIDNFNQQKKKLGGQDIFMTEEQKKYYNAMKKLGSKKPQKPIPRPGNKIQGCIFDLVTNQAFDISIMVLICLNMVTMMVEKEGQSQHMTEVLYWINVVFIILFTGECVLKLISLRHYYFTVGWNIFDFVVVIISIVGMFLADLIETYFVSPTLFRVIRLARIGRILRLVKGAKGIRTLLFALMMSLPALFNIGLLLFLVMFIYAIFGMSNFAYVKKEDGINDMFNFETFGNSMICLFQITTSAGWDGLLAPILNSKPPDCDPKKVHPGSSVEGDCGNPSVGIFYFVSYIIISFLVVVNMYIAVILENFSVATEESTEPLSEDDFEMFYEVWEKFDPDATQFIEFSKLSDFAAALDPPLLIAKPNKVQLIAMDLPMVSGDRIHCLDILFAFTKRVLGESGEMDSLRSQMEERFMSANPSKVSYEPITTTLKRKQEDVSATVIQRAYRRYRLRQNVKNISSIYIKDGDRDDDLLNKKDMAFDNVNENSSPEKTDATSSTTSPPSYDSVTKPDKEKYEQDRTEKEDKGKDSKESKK

Assay [3] has as its target T1, human sodium channel Nav 1.8. The experiment in a line: Automated whole-cell voltage-clamp (ScreenPatch 384P), Nav 1.8 sodium current, Protocol 2. The following applies: read-out: Nav1.8 IC50. An outline of the steps: (§11)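 CHO cells stably expressing human Nav1.7 or Nav1.8, automated whole-cell clamp, room temperature, ≥5 min exposure at eight concentrations. Protocol 1: hold −90 mV, 0.1 Hz, test pulse 0 mV (Nav1.7) or 10 mV (Nav1.8). Protocol 2: hold −100 mV with 8 s −40 mV inactivating step, 0.05 Hz. IC50 from Hill fit of TP1A peak-current block, normalized to vehicle and positive control.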

Assay [4] deals with T2, human sodium channel Nav 1.7. In words: Automated whole-cell voltage-clamp (ScreenPatch 384P), Nav 1.7 sodium current, Protocol 2. The following applies: read-out: Nav1.7 IC50. An outline of the steps: as §11

T1 sequence (Q9Y5Y9 whole entry): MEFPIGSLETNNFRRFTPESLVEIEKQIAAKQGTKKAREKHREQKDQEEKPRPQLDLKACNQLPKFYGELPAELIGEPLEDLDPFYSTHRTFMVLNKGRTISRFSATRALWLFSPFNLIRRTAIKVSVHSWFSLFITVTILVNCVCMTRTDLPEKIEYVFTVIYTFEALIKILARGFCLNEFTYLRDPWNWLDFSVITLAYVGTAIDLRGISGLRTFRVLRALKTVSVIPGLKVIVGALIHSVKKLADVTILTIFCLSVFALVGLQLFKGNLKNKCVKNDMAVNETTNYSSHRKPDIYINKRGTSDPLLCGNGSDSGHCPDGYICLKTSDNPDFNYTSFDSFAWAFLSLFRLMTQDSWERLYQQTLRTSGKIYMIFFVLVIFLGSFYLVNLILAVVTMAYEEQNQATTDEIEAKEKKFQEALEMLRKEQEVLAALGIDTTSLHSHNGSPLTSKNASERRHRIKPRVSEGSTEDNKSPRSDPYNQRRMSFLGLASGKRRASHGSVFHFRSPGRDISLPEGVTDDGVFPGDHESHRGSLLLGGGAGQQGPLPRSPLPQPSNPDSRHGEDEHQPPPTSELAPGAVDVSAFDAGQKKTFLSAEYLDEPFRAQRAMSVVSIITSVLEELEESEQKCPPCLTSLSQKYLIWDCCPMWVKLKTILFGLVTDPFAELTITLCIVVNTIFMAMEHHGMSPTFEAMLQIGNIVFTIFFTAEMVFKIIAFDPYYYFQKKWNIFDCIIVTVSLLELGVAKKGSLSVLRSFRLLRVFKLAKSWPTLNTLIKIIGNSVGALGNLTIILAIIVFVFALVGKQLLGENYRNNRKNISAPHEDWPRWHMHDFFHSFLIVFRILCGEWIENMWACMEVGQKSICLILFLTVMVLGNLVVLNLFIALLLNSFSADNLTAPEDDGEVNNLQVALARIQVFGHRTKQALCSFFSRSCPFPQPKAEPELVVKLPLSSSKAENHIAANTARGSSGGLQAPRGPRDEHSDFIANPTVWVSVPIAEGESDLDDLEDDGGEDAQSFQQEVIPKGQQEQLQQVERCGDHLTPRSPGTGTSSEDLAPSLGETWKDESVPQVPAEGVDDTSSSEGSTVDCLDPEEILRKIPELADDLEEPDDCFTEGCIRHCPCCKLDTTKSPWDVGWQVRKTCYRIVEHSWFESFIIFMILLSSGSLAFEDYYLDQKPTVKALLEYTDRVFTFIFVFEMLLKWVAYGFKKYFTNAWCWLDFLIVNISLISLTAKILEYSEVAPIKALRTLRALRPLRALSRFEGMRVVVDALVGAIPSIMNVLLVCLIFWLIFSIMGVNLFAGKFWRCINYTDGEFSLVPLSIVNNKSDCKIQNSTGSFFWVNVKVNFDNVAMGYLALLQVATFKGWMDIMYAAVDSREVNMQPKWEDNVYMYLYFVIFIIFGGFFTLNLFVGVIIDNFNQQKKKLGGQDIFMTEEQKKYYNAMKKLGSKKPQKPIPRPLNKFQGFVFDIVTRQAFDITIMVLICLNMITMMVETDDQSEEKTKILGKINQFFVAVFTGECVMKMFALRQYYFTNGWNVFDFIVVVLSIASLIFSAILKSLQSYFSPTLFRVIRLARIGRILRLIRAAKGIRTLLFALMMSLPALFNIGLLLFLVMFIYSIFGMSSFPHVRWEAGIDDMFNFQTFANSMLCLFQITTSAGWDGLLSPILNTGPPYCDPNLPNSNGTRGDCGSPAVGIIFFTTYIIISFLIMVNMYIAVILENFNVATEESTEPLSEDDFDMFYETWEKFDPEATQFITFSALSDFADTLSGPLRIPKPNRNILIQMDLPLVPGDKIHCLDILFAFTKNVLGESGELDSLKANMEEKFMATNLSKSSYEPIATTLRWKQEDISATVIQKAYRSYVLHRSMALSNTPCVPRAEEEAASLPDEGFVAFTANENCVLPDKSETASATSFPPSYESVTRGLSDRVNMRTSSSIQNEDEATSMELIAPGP

A word on the IC50: it is the concentration at which inhibition is half-maximal. For the compound `CCOc1ccc(-c2cncc(C(=O)N/N=C/c3ccccn3)n2)cc1` [Compound 25, (E)-6-(4-ethoxyphenyl)-N′-(pyridin-2-ylmethylene)pyrazine-2-carbohydrazide], the concentration for half-maximal inhibition (IC50) in assay [1] and in assay [2] was over 10000 nM throughout.

For the compound `CCOc1ccc(-c2cncc(C(=O)N/N=C/c3cccc(OC)n3)n2)cc1` [Compound 11, (E)-6-(4-ethoxyphenyl)-N′-((6-methoxypyridin-2-yl)methylene)pyrazine-2-carbohydrazide], the results for the half-maximal inhibitory concentration (IC50) in assay [1] and in assay [2] were 3230 nM and 4520 nM, respectively.

Turning to `CCOc1ccc(-c2cncc(C(=O)N/N=C/c3ccc(OC)c(OC)c3)n2)cc1` [Compound 28, (E)-N′-(3,4-dimethoxybenzylidene)-6-(4-ethoxyphenyl)pyrazine-2-carbohydrazide], the values for the 50% inhibitory concentration (IC50) in assay [1] and in assay [2] were 2370 nM and 1400 nM, respectively.

As to `CCOc1ccc(-c2cncc(C(=O)N/N=C/c3ccncc3)n2)cc1` [Compound 24, (E)-6-(4-ethoxyphenyl)-N′-(pyridin-4-ylmethylene)pyrazine-2-carbohydrazide], the IC50 is 8090 nM in assay [1] and over 10000 nM in assay [2].

`CCOc1ccc(-c2cncc(C(=O)N/N=C/c3cncc(OC)c3)n2)cc1` [Compound 8, (E)-6-(4-ethoxyphenyl)-N′-((5-methoxypyridin-3-yl)methylene)pyrazine-2-carbohydrazide]: the IC50 in assay [1] and in assay [2] was over 10000 nM each time.

Turning to `COc1cc(/C=N/NC(=O)c2cncc(-c3cccc(Cl)c3)n2)cc(OC)c1` [Compound 93, (E)-6-(3-chlorophenyl)-N′-(3,5-dimethoxybenzylidene)pyrazine-2-carbohydrazide], the concentration for half-maximal inhibition (IC50) in assay [3] was over 1000 nM; in assay [4], over 10000 nM.

For the compound `CCOc1ccc(-c2cncc(C(=O)N/N=C/c3ccc(C(=O)NS(C)(=O)=O)cc3)n2)cc1` [Compound 188, (E)-4-((2-(6-(4-ethoxyphenyl)pyrazine-2-carbonyl)hydrazinalidene)methyl)-N-(methylsulfonyl)benzamide], the IC50 in assay [3] was over 1000 nM; in assay [4] it was over 10000 nM.

Regarding `COc1ccc(-c2cncc(C(=O)N/N=C/C3=C(C)CCCCC3)n2)cc1` [Compound 200], the values for the IC50 in assay [3] and in assay [4] were 129 nM and 2650 nM, respectively.

For `COc1cc(/C=N/NC(=O)c2cncc(-c3ccc(OC)cc3C(F)(F)F)n2)cc(OC)c1` [Compound 123, (E)-N′-(3,5-dimethoxybenzylidene)-6-(4-methoxy-2-(trifluromethoxy)phenyl)pyrazine-2-carbohydrazide], the results for the half-maximal inhibitory concentration (IC50) in assay [3] and in assay [4] were 803 nM and 49.2 nM, respectively.

Consider `CCOc1ccc(-c2cncc(C(=O)N/N=C/c3ccccc3NS(C)(=O)=O)n2)cc1` [Compound 193, (E)-N-(2-((2-(6-(4-ethoxyphenyl)pyrazine-2-carbonyl)hydrazinalidene)methyl)phenyl)methanesulfonamide], for which the 50% inhibitory concentration (IC50) is over 1000 nM in assay [3] and over 10000 nM in assay [4].

Consider `COc1cc(/C=N/NC(=O)c2cncc(-c3ccccc3OC)n2)cc(OC)c1` [Compound 102, (E)-N′-(3,5-dimethoxybenzylidene)-6-(2-methoxyphenyl)pyrazine-2-carbohydrazide], for which the half-maximal inhibitory concentration (IC50) in assay [3] was 459 nM; in assay [4], over 10000 nM.

`CCCN1CCN(c2cncc(C(=O)N/N=C/c3cc(OC)cc(OC)c3)n2)CC1` [Compound 128, (E)-N′-(3,5-dimethoxybenzylidene)-6-(4-propylpiperazin-1-yl)pyrazine-2-carbohydrazide]: the IC50 in assay [3] is over 1000 nM; in assay [4] it was over 10000 nM.

Take `COc1cc(/C=N/NC(=O)c2cncc(N3CCCC(F)(F)CC3)n2)cc(OC)c1` [Compound 179, (E)-6-(4,4-difluoroazepan-1-yl)-N′-(3,5-dimethoxybenzylidene)pyrazine-2-carbohydrazide]: the figures for the IC50 in assay [3] and in assay [4] were over 1000 nM and over 10000 nM, respectively.

As to `CCOc1ccc(-c2cncc(C(=O)N/N=C/c3cc(OC)cc(OC)c3OC)n2)cc1` [Compound 13, (E)-6-(4-ethoxyphenyl)-N′-(2,3,5-trimethoxybenzylidene)pyrazine-2-carbohydrazide], the concentration for half-maximal inhibition (IC50) worked out at 73 nM in assay [3] and 189 nM in assay [4].

Take `CCOc1ccc(-c2cncc(C(=O)N/N=C/c3cccc(OC)c3)n2)c(OCC)c1` [Compound 153, (E)-6-(2,4-diethoxyphenyl)-N′-(3-methoxybenzylidene)pyrazine-2-carbohydrazide]: the half-maximal inhibitory concentration (IC50) is 121 nM in assay [3] and 228 nM in assay [4].

Take `COc1ccc(-c2cncc(C(=O)N/N=C/c3ccccc3)n2)cc1` [Compound 178, (E)-N′-benzylidene-6-(4-methoxyphenyl)pyrazine-2-carbohydrazide]: the half-inhibitory concentration (IC50) stood at 358 nM in assay [3] and 3190 nM in assay [4].

In the case of `CCOc1ccc(-c2cncc(C(=O)N/N=C/c3cc(OC)ccc3OC)n2)cc1` [Compound 3, (E)-N′-(2,5-dimethoxybenzylidene)-6-(4-ethoxyphenyl)pyrazine-2-carbohydrazide], the results for the 50% inhibitory concentration (IC50) in assay [3] and in assay [4] were 152 nM and 855 nM, respectively.

Turning to `CCOc1ccc(-c2cncc(C(=O)N/N=C/c3cc(OC)c(F)c(OC)c3)n2)c(OC)c1` [Compound 107, (E)-6-(4-ethoxy-2-methoxyphenyl)-N′-(4-fluoro-3,5-dimethoxybenzylidene)pyrazine-2-carbohydrazide], the 50% inhibitory concentration (IC50) in assay [3] stood at 1000 nM; in assay [4], 5160 nM.

As to `CCOc1ccc(-c2cncc(C(=O)N/N=C/c3cccc(OC)c3)n2)c(C(F)(F)F)c1` [Compound 120, (E)-6-(4-ethoxy-2-(trifluoromethyl)phenyl)-N′-(3-methoxybenzylidene)pyrazine-2-carbohydrazide], the concentration for half-maximal inhibition (IC50) in assay [3] turned out to be 133 nM; in assay [4] it was 116 nM.

Take `CCOc1ccc(-c2cnc(OC)c(C(=O)N/N=C/c3cc(OC)cc(OC)c3)n2)cc1` [Compound 145, (E)-N′-(3,5-dimethoxybenzylidene)-6-(4-ethoxyphenyl)-3-methoxypyrazine-2-carbohydrazide]: the IC50 in assay [3] and in assay [4] was over 300 nM throughout.

With `COc1ccc(-c2cncc(C(=O)N/N=C/c3ccccc3Br)n2)cc1` [Compound 48, (E)-N′-(2-bromobenzylidene)-6-(4-methoxyphenyl)pyrazine-2-carbohydrazide], the IC50 in assay [3] was 233 nM; in assay [4] it was 798 nM.

For the compound `COc1ccc(-c2cncc(C(=O)N/N=C/c3cccc(F)c3)n2)cc1` [Compound 53, (E)-N′-(3-fluorobnezylidene)-6-(4-methoxyphenyl)pyrazine-2-carbohydrazide], the concentration for half-maximal inhibition (IC50) in assay [3] is 441 nM; in assay [4] it was over 10000 nM.

Take `COc1ccc(-c2cncc(C(=O)N/N=C/c3ccc(C(F)(F)F)cc3)n2)cc1` [Compound 63, (E)-6-(4-methoxyphenyl)-N′-(4-(trifluoromethyl)benzylidene)pyrazine-2-carbohydrazide]: the values for the IC50 in assay [3] and in assay [4] were over 1000 nM and over 10000 nM, respectively.

For the compound `COc1cc(/C=N/NC(=O)c2cncc(-c3ccc(CC(C)C)cc3)n2)cc(OC)c1` [Compound 116, (E)-N′-(3,5-dimethoxybenzylidene)-6-(4-isobutylphenyl)pyrazine-2-carbohydrazide], the IC50 in assay [3] was 332 nM; in assay [4], 666 nM.
